In PMC5523311, “Synergistic Uric Acid-Lowering Effects of the Combination of Chrysanthemum indicum Linne Flower and Cinnamomum cassia (L.) J. Persl Bark Extracts” (Evidence-based Complementary and Alternative Medicine : eCAM, 2017):
In brackets after ≈: the same amount, converted by molar mass.

Key:
normal rats = experiment: Serum uric acid levels in normal rats; type: in vivo, rat; settings: 10 mg/kg oral, Figure 1(b)
Procedure: The rats were randomized into the following 9 groups (n = 8/group) based on body weight: (1) a normal control group (NC), (2) a CF group, (3) a CB group, (4) a CC11 group, (5) a CC12 group, (6) a CC14 group, (7) a CC21 group, (8) a CC41 group, and (9) an AP group. The rats of NC group were treated with vehicle (0.5% CMC solution). CF, CB, and various CC mixtures in 0.5% CMC solution were given to the rats via oral gavage at a dose of 200 mg/kg. Allopurinol in 0.5% CMC solution was administered at a dose of 10 mg/kg.
(§1) Urine samples were collected during 2 h after the final administration experiment and centrifuged (3000g, 10 min, 4°C) to remove particulate contaminants, and the supernatants were stored at −80°C until analysis. Blood samples were collected via cardiac puncture under anesthesia 2 h after urine collection following PO injection. […] Serum and urine uric acid (SUA and UUA, resp.) levels were determined by an enzymatic-colorimetric method using commercial assay kits (Biovision, USA) according to manufacturer's protocols. Serum and urine creatinine levels were analyzed by an autoanalyzer (Hitachi-7020, Hitachi Medical, Japan). Fractional excretion of uric acid (FEUA) was calculated by the formula FEUA (%) = (urine uric acid levels [mg/dl] × Serum Creatinine levels [mg/dl])/(serum uric acid levels [mg/dl] × urine creatinine levels [mg/dl]) × 100.

[1] = test system: PO-induced hyperuricemic rats; experiment: Urine uric acid, FEUA and creatinine in PO-induced hyperuricemic rats; type: in vivo, rat; settings: 10 mg/kg oral
Procedure: (§2) For hyperuricemia induction, the uricase inhibitor potassium oxonate (PO) was administered as previously described, with slight modifications. For the experiment regarding the effects of CF, CB, and various CC mixtures, the rats were divided into the following 10 groups (n = 8/group) based on body weight: (1) a normal control group (NC), (2) a hyperuricemia control group (PO), (3) a PO + CF group, (4) a PO + CB group, (5) a PO + CC11 group, (6) a PO + CC12 group, (7) a PO + CC14 group, (8) a PO + CC21 group, (9) a PO + CC41 group, and (10) a PO + AP group. […]
as §1, with “analysis.” for “analysis. Blood samples were collected via cardiac puncture under anesthesia 2 h after urine collection following PO injection.”

[2] = target: T1, xanthine oxidase from bovine milk (Bos taurus, UniProt P80457); experiment: In vitro XOD inhibition assay (uric acid formation at 295 nm); type: biochemical; settings: for IC50 XOD activity / IC50: mean of three experiments
T1 construct: xanthine oxidase from bovine milk (0.09 units/mg solid); purchased Sigma-Aldrich (St. Louis, MO, USA); host or cells: bovine milk
T1 sequence (P80457 whole entry): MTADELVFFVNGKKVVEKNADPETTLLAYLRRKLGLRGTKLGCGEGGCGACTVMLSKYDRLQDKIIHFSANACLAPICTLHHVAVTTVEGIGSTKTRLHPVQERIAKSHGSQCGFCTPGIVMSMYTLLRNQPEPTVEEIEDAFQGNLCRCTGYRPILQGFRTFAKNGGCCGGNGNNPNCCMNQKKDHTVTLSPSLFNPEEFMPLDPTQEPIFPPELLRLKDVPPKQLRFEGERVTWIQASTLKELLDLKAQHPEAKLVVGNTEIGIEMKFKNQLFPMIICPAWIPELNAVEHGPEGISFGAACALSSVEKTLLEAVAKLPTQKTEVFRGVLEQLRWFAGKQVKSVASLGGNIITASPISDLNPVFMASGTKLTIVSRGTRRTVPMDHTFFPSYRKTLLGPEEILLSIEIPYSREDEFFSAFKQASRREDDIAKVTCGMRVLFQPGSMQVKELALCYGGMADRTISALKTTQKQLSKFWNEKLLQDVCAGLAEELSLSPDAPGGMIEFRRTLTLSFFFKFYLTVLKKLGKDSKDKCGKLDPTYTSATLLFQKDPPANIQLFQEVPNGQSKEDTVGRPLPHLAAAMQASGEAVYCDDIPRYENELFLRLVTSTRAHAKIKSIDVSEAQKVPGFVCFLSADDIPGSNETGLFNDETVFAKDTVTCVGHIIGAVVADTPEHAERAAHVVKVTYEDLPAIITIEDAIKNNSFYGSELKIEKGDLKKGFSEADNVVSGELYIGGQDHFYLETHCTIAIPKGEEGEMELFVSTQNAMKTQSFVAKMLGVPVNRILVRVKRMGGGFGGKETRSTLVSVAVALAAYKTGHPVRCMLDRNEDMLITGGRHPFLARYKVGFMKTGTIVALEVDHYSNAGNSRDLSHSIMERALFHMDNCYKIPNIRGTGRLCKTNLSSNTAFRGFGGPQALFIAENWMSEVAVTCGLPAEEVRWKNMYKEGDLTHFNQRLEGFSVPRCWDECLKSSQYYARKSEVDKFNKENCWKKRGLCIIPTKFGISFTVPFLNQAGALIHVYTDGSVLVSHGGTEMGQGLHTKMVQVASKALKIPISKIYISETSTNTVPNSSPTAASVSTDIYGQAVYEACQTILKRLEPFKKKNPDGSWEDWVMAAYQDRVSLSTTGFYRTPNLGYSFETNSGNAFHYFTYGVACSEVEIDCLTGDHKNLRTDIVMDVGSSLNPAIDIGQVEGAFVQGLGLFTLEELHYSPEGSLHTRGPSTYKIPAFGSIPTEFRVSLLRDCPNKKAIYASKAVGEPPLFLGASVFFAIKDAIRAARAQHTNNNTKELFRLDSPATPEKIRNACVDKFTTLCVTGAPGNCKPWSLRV
Procedure: Inhibition of XOD activity was analyzed based on decreases in uric acid formation at 295 nm at 37°C using a spectrophotometer. […] Test samples were dissolved in DMSO (final concentration 0.1%, v/v) to final concentrations appropriate for the tested dose. […] All the experiments were performed in triplicate, and IC50 values are expressed as the means of three experiments [26].

[3] = test system: PO-induced hyperuricemic rats; experiment: Serum uric acid levels in PO-induced hyperuricemic rats; type: in vivo, rat; settings: 10 mg/kg oral
Procedure: as §2
as §1, with “analysis.” for “analysis. Blood samples were collected via cardiac puncture under anesthesia 2 h after urine collection following PO injection.”

[4] = test system: PO-induced hyperuricemic mice; set-up: method as in Wang et al. [23] and Meng et al. [32]; settings: ref Wang et al. [23] and Meng et al. [32]; cited from earlier work
[5] = read-out: % inhibition of XOD activity

Row | SMILES | % inhibition of XOD activity ([2]; 62.5 μg/ml) [%] | % inhibition of XOD activity ([2]; 125 μg/ml) [%] | % inhibition of XOD activity ([2]; 250 μg/ml) [%] | IC50 XOD activity [2] [µg/mL] | inhibition at 62.5 µg/mL ([2]; 62.5 μg/ml) [%] | inhibition at 125 µg/mL ([2]; 125 μg/ml) [%] | inhibition at 250 µg/mL ([2]; 250 μg/ml) [%] | IC50 [2] [µM] | other results
1 | Oc1ncnc2[nH]ncc12 [Allopurinol, allopurinol] | – | – | – | – | – | – | – | – | Decrease of serum uric acid levels compared with the NC group (normal rats): 70%; Effect on urine uric acid levels ([1]; Figure 2(b)): did not affect; Effect on FEUA ([1]; Figure 2(c), p < 0.05): increased the FEUA; inhibition at 6.25 µg/mL [2, 5]: 51.7 ± 0.7%; inhibition at 12.5 µg/mL [2, 5]: 71.7 ± 0.1%; inhibition at 25 µg/mL [2, 5]: 80.3 ± 0.3%; Reduction of serum uric acid levels compared with the PO group ([3]; PO-induced hyperuricemic rats, Figure 1(a)): 75%; Reduction of serum uric acid levels ([3]; dose-dependence experiment, Figure 2(a)): 66%
2 | O=C(O)/C=C/c1ccccc1 [trans-Cinnamic acid, trans-cinnamic acid] | 54.3 ± 0.7 | 96.7 ± 1.9 | 114.9 ± 0.4 | 58.8 (≈ 397 µM) | – | – | – | – | –
3 | COc1ccccc1C=CC=O [o-Methoxycinnamaldehyde, o-methoxycinnamaldehyde] | 104.7 ± 0.2 | 101.2 ± 0.2 | 100.0 ± 0.4 | 25.7 (≈ 158 µM) | – | – | – | – | –
4 | O=c1ccc2ccccc2o1 [Coumarin, coumarin] | – | – | – | – | 22.8 ± 0.1 | 75.1 ± 1 | 103.9 ± 0.7 | 651 | –
5 | O=C/C=C/c1ccccc1 [Cinnamaldehyde, cinnamaldehyde] | – | – | – | – | 101 ± 3.2 | 126 ± 5.6 | 119 ± 35.1 | 331 | Effect on serum uric acid levels by inhibiting XOD activity [4]: significantly decreased
6 | O=C(/C=C/c1ccc(O)c(O)c1)O[C@@H]1C[C@](O)(C(=O)O)C[C@@H](O)[C@H]1O [Chlorogenic acid] | – | – | – | – | 24 ± 1.7 | 63.6 ± 1.5 | 107.3 ± 0.6 | 293 | Effect on serum uric acid levels by inhibiting XOD activity [4]: significantly decreased
7 | O=C(/C=C/c1ccc(O)c(O)c1)O[C@@H]1[C@H](O)C[C@@](O)(C(=O)O)C[C@H]1OC(=O)/C=C/c1ccc(O)c(O)c1 (stereo in doubt) [3,4-Dicaffeoylquinic acid, 3,4-dicaffeoylquinic acid] | 21.0 ± 1.5 | 104.6 ± 2.6 | 85.0 ± 1.2 | 79.7 (≈ 154 µM) | – | – | – | – | –
